Columns and labels:
[1] = biological target: T1, heat treated T. brockii extract (Thermoanaerobacter brockii, UniProt P14941); test: Reduction of 2-pentanone by heat treated extract with NADPH regenerating system (gas chromatographic analysis); assay type: biochemical, Thermoanaerobium brockii; settings: 3 g in 150 ml; 0.2 v/v isopropanol, 0.3 mM NADP; 40 hr. at 37° C.
T1 construct: made in house; host or cells: T. brockii itself (native host; heat treated crude extract)
T1 sequence (P14941 1-352): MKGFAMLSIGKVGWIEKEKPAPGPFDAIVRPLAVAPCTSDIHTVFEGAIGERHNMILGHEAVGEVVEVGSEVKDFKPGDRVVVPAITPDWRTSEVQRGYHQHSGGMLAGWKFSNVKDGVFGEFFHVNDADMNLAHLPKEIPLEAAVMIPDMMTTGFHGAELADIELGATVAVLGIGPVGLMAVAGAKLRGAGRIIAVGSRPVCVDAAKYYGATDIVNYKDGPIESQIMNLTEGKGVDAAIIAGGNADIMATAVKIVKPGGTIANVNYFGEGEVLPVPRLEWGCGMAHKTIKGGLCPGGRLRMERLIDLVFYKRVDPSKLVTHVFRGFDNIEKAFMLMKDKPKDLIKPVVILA
Experimental: As illustrated in the following reaction diagram, an NADPH regenerating system can be initiated with isopropanol as the electron donor for the reduction of 2-pentanone. [drawing 1] A 150 ml solution was prepared containing 50 mM Tris-HCl (pH 7.8), 0.2 v/v isopropanol, 2 mM dithiothreitol, 0.3 mM NADP and 3 g 2-pentanone. After the solution was degassed with N2, sufficient heat treated T. brockii extract was added to yield an activity of 1 U/min./ml. The solution was incubated in a stoppered vessel for 40 hr. at 37° C. Gas chromatographic analysis indicated a 90% conversion of 2-pentanone to the corresponding alcohol. The mixture was extracted with diethyl ether and then fractionally distilled. The fractions were analyzed by conventional gas chromatographic and NMR (nuclear magnetic resonance) methods. The pure 2-pentanol fraction yielded a dextrorotatory optical rotation which corresponded to that of a highly optically enriched compound. The result in optical purity was dependent on incubation temperature and initial rate of isopropanol to 2-pentanone. Decreasing the temperature from 37° C. to 25° C. and the 2-pentanone concentration from 3 grams/150 ml to 0.6 grams/150 ml, increases the d/l bar ratio from 6/l to 9/l for the resulting 2-pentanol.

[2] = biological target: T2, NADP linked alcohol dehydrogenase (alcohol-aldehyde/ketone oxidoreductase) (Thermoanaerobacter brockii, UniProt P14941); test: Specific activity of partially purified NADP linked alcohol dehydrogenase with alcohols and carbonyl compounds (absorbance at 334 nm); assay type: biochemical, Thermoanaerobium brockii; settings: saturating substrate (0.2-0.5 M alcohol or ketone, 10 mM acetaldehyde); 0.5 mM NADP or 0.2 mM NADPH; 0.1 M Tris-Cl pH 7.8
T2 construct: of the T. brockii enzyme preparation with various alcohols and carbonyl compounds; made in house; host or cells: T. brockii itself (native host; partially purified enzyme)
T2 sequence (P14941 1-352): T1 sequence (P14941 1-352)

CCCC(C)=O [CH3 COCH2 CH2 CH3, 2-pentanone]
Conversion to the corresponding alcohol [1]: 90% | Activity V/mg. at 60° C. [2]: 4.2 μ Mole/Min./Mg Protein

— patent US4352885A, “Preparation of a novel NADP linked alcohol-aldehyde/ketone oxidoreductase from thermophilic anaerobic bacteria for analytical and commercial use” (Wisconsin Alumni Research Foundation, priority 1980, dated 1982)
